Experiments:
Assay type in all cases: cell-based
[1] = target: T1, TRPV1 channels in Dorsal Root Ganglions (DRG) (Rattus norvegicus, UniProt O35433); experiment: TRPV1 currents in DRG neurons activated by capsaicin; settings: 5 μM; 0.5 μM capsaicin; reversible
T1 construct: endogenous in cells; host or cells: primary rat dorsal root ganglion neurons
Method: FIG. 14 presents the inhibitory effect of NH29, an exemplary compound according to some embodiments of the present invention, on TRPV1 channels in Dorsal Root Ganglions (DRG).
For dorsal root ganglion (DRG) neuronal cultures, ganglia were dissected from 2-5 day-old Sprague-Dawley rats killed by decapitation. DRGs were placed in Hank's balanced saline solution (HBSS) and prepared by enzymatic dissociation. Briefly, after 30 minutes incubation in 5 mg/ml dispase, 2 mg/ml collagenase type 1A and 0.1 mg/ml DNase (Invitrogen/Gibco, Carlsbad, Calif.) in Ca^2+ and Mg^2+-free HBSS, the ganglia were mechanically triturated with a fire-polished glass Pasteur pipette. The ganglia were then centrifuged for 5 minutes at 80×g and resuspended in DMEM supplemented with 2 mM L-glutamine, 16.5 mM NaHCO3, 6 g/l glucose, 5 ml penicillin/streptomycin and 10% fetal calf serum.
For electrophysiological recording, dissociated neurons were plated on 13 mm glass coverslips, previously coated with poly-D-lysine (1 mg/ml) and laminin (10 μg/ml) and used at 1-2 days in culture.

KCNQ2 mutant R207W = target: T2, KCNQ2 mutant R207W (Homo sapiens, UniProt O43526, R207W)
T2 construct: expressed in transfected cells; host or cells: CHO cells
T2 sequence (O43526 whole entry R207W): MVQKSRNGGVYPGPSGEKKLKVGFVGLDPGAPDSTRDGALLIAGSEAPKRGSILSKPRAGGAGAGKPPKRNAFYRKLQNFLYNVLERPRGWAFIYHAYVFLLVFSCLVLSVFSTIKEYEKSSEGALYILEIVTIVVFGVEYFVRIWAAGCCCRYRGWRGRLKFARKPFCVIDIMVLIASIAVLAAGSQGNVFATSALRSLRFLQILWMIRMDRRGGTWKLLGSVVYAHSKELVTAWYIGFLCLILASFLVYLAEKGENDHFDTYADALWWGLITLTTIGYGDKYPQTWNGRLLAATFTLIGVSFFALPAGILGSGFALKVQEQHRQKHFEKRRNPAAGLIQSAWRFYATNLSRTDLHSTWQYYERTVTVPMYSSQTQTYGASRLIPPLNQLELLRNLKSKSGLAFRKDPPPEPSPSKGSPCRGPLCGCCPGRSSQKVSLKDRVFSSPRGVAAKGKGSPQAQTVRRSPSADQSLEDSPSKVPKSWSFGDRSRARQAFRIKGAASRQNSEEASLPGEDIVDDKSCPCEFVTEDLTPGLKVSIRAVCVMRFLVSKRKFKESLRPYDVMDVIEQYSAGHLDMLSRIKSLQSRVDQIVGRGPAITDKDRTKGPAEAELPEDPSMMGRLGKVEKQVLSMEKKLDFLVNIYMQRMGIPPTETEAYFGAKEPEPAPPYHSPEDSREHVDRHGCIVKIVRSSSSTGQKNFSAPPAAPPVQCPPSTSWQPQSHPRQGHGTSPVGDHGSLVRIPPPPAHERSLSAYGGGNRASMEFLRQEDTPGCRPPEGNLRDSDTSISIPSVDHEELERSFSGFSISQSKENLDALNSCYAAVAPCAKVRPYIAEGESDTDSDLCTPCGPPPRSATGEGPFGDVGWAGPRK
Description: FIGS. 10A-D present the potentiating effect of NH29, an exemplary channel opener compound according to embodiments of the present invention, on wild type KCNQ2 (FIGS. 10A and 10B) and R207W mutant (FIGS. 10C and 10D) channels, as expressed in activation curve measurements, showing that NH29 left-shifts the activation curve (ΔV50) by −15.5 mV and −5.5 mV in the case of the wild-type and the mutant, respectively, and showing that NH29 enhances the current of wild-type and the mutant by about 3.4-fold (at −40 mV) and 1.5-fold (at −20 mV), respectively.
FIGS. 11A-F present the potentiating effect of NH29, an exemplary channel opener compound according to embodiments of the present invention, and Retigabine, on KCNQ2 mutants R207W and W236L mutant. Shown are representative traces recorded from CHO cell transfected with the KCNQ2 mutant R207W 0, 1 and 4-4.5 minutes after external application of 25 μM of NH29 and wherein the membrane potential was stepped from −90 mV holding potential to −20 mV for 1.5 seconds pulse duration (FIG. 11A), or 0, 1 and 4 minutes after external application of 25 μM of Retigabine wherein the membrane potential was stepped from −90 mV holding potential to −40 mV for 1.5 seconds pulse duration (FIG. 11B). FIGS. 11C and 11D show representative traces recorded from CHO cells transfected with the KCNQ2 mutant W236L 0, 1 and 6 minutes after external application of 25 μM of NH29 (FIG. 11C) or 0 and 5 minutes after external application of 10 μM of Retigabine (FIG. 11D) and wherein the membrane potential was stepped from −90 mV holding potential to −40 mV for 1.5 seconds pulse duration. FIG. 11E presents superimposed traces, showing the effects of Retigabine (RTG) and NH29 on the channel activity of KCNQ2 mutant W236L as measured at −40 mV; and FIG. 11F presents a bar diagram comparing the potentiating effect of NH29 and Retigabine on native KCNQ2 and KCNQ2 mutants, wherein the opener effect is expressed as percent of the control current in the absence of the opener.
Voltage-clamp recordings in CHO cells were performed, using the whole-cell configuration of the patch-clamp technique. Signals were amplified using an Axopatch 200B patch-clamp amplifier (Molecular Devices, Sunnyvale, Calif.), sampled at 2 kHz and filtered at 800 Hz via a 4-pole Bessel low pass filter. Data were acquired using pClamp 9.2 software (Molecular Devices) and an IBM compatible Pentium IV computer in conjunction with a DigiData 1322A interface (Molecular Devices). The patch pipettes were pulled from borosilicate glass (Warner Instrument Corp, USA) with a resistance of 2-5 MΩ. For K^+ current recordings in CHO cells, the intracellular pipette solution contained (in mM): 130 KCl, 1 MgCl2, 5 K2ATP, 5 EGTA, 10 HEPES, adjusted with KOH to pH 7.4 (290 mOsm). The extracellular solution contained (in mM): 140 NaCl, 4 KCl, 1.8 CaCl2, 1.2 MgCl2, 11 glucose, 5.5 HEPES, adjusted with NaOH to pH 7.4 (310 mOsm). Series resistances (3-13 MΩ) were compensated (75-90%) and periodically monitored.

KCNQ2 mutant L206C = target: T3, KCNQ2 mutant L206C (Homo sapiens, UniProt O43526, L206C); experiment: KCNQ2 S4 mutant L206C in CHO cells; settings: 25 μM NH29
T3 construct: expressed in transfected cells; host or cells: CHO cells
T3 sequence (O43526 whole entry L206C): as the sequence (O43526 whole entry R207W) above, with L206C, W207R counted along it
Description: FIGS. 12A-F present the potentiating effect of NH29, an exemplary channel opener compound according to embodiments of the present invention, on selected KCNQ2 mutants. Shown are bar diagrams comparing the potentiating effect of NH29 on native KCNQ2 and KCNQ2 mutants, wherein the mutated amino acids are located at the S1-S2 helix region (FIG. 12A) or S4 helix region (FIG. 12D) and wherein the opener effect is expressed as percent of the control current in the absence of the opener. For comparison, marked as a green line, is the observed current increase of native KCNQ2 by NH29. FIGS. 12B 12C, 12E and 12F present representative traces recorded from CHO cell transfected with the KCNQ2 mutant S122A, S121A, L206C and R201A respectively, before and after external application of 25 μM of NH29 and wherein the membrane potential was stepped from −90 mV holding potential to −40 mV for 1.5 seconds pulse duration.
Voltage-clamp recordings in CHO cells were performed, using the whole-cell configuration of the patch-clamp technique. Signals were amplified using an Axopatch 200B patch-clamp amplifier (Molecular Devices, Sunnyvale, Calif.), sampled at 2 kHz and filtered at 800 Hz via a 4-pole Bessel low pass filter. […] Series resistances (3-13 MΩ) were compensated (75-90%) and periodically monitored.

T1 sequence (O35433 whole entry): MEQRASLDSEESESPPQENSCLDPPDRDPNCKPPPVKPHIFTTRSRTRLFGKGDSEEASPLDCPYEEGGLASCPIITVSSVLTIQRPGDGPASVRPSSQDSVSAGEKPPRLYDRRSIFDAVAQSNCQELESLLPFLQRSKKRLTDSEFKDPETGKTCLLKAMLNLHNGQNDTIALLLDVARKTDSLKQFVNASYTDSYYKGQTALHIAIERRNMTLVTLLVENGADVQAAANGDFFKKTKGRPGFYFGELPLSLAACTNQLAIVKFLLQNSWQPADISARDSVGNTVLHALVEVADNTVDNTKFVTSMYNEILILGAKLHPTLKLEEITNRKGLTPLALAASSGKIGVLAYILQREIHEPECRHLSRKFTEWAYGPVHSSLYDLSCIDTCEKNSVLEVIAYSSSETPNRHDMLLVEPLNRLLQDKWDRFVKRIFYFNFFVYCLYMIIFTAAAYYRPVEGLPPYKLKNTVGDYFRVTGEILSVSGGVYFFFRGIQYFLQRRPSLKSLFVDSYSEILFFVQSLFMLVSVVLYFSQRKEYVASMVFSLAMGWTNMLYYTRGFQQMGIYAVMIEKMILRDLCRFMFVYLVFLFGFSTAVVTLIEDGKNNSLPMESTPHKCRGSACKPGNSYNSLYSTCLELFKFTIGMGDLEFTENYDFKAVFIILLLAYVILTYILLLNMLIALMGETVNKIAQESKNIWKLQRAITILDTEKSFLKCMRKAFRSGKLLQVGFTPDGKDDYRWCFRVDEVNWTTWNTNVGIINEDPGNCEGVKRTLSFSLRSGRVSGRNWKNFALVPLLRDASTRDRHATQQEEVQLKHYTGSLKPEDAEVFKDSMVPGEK

O=C(Cc1cc([N+](=O)[O-])cc([N+](=O)[O-])c1Nc1c(Cl)cc([N+](=O)[O-])cc1Cl)NCCO [NH29]
inhibition of TRPV1 current [1]: almost completely
effect of point mutation R207W on the opener effect (KCNQ2 mutant R207W; 25 μM): completely abolished the opener effect
fold enhancement of current (KCNQ2 mutant R207W; 25 μM NH29, at −20 mV): ~1.5 fold
left-shift of the activation curve (ΔV50) (KCNQ2 mutant R207W; NH29): −5.5 mV
opener activity on S4 mutant L206C (KCNQ2 mutant L206C): NH29 activity was preserved

— US9403756B2, “N-phenyl anthranilic acid derivatives and uses thereof” (Ramot at Tel-Aviv University Ltd., priority 2007, dated 2016)
